Results from PMC7531004, “Discovery of gramicidin A analogues with altered activities by multidimensional screening of a one-bead-one-compound library” (Nature Communications, 2020).
Where a SMILES comes first, the peptide text is derived from it. [ ]: non-standard residue; d: D form. The star is where a group is joined. NHCH2CH2OH = OCCN*; For = O=C*

Assays:
[1] = H+/Na+ transport assay of bead-derived peptides (one-point); type: biochemical; design: key: relative activity; mean of two control wells = 1.00; details: bead-derived peptide solution, EYPC/EYPG LUVs;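 further: relative to parent gramicidin A activity set to 1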
Method in brief: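 Values are normalized fluorescence, with Triton X-100 defining 100% and untreated LUVs 0%, and the two control wells averaging 1.00. Vesicles carried 1.0 mM pyranine and included egg yolk phosphatidylglycerol. Peptides were incubated with them 30 min at room temperature.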

[2] = cell viability/%
Method in brief: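 P388 cells at 1 × 10^4 cells/mL (final) were exposed to library peptides (stocks diluted 250-fold in RPMI1640/10% FBS) for 92 h at 37 °C, 5% CO2. Viable cells were counted by WST-1/1-methoxy PMS (4 h), absorbance 415 nm, and expressed as cell viability (%).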

[3] = system: Streptococcus pyogenes SSI-9; test: Antibacterial activity assay of bead-derived peptides (three concentrations); type: cell-based; design: key: +++: inhibition by the 640-fold diluted peptide solution; ++: inhibition by the 160-fold diluted solution; +: inhibition by the 40-fold diluted solution; -: no inhibition; details: S. pyogenes, bead-derived peptide solution, three concentrations
Method in brief: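 Undiluted, 4-fold and 16-fold DMSO-diluted peptide stocks; S. pyogenes SSI-9, 2 × 10^5 CFU, cation-adjusted MHB (50 mg/L Ca2+, 25 mg/L Mg2+) + 5% laked horse blood; 37 °C, 18 h; readout = cell pellet visible or not.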

Row | Structure (SMILES) | H+/Na+ transport activity normalized against the value of 1 (1.00) [1] | viability [2] [%] | antibacterial activity [3]
1 | CC(C)C[C@@H](NC(=O)[C@H](C)NC(=O)CNC(=O)[C@@H](NC=O)C(C)C)C(=O)N[C@@H](C)C(=O)N[C@H](CC(C)C)C(=O)N[C@H](C(=O)N[C@@H](C(=O)N[C@@H](Cc1c[nH]c2ccccc12)C(=O)N[C@H](CC(C)C)C(=O)N[C@@H](Cc1c[nH]c2ccccc12)C(=O)N[C@@H](C(=O)N[C@@H](Cc1c[nH]c2ccccc12)C(=O)N[C@@H](C(=O)N[C@@H](Cc1c[nH]c2ccccc12)C(=O)NCCO)C(C)C)C(C)C)[C@H](C)O)C(C)C [compound 8130] (For-VGA[dL]A[dL]V[dT]W[dL]W[dV]W[dV]W-NHCH2CH2OH) | 1.17 | 100 | -
2 | CC(C)C[C@@H](NC(=O)[C@H](Cc1c[nH]c2ccccc12)NC(=O)[C@H](NC(=O)[C@@H](NC(=O)[C@H](NC(=O)[C@H](C)NC(=O)[C@H](NC(=O)[C@H](C)NC(=O)CNC(=O)[C@@H](NC=O)C(C)C)C(C)C)[C@H](C)O)C(C)C)C(C)C)C(=O)N[C@@H](Cc1c[nH]c2ccccc12)C(=O)N[C@H](CC(C)C)C(=O)N[C@@H](Cc1c[nH]c2ccccc12)C(=O)N[C@@H](C(=O)N[C@@H](Cc1c[nH]c2ccccc12)C(=O)NCCO)C(C)C [compound 8141] (For-VGA[dV]A[dT]V[dV]W[dL]W[dL]W[dV]W-NHCH2CH2OH) | 1.03 | 100 | -
3 | CC(C)C[C@@H](NC(=O)[C@H](C)NC(=O)CNC(=O)[C@@H](NC=O)C(C)C)C(=O)N[C@@H](C)C(=O)N[C@@H](C(=O)N[C@H](C(=O)N[C@H](CC(C)C)C(=O)N[C@@H](Cc1c[nH]c2ccccc12)C(=O)N[C@H](CC(C)C)C(=O)N[C@@H](Cc1c[nH]c2ccccc12)C(=O)N[C@H](CC(C)C)C(=O)N[C@@H](Cc1c[nH]c2ccccc12)C(=O)N[C@@H](C(=O)N[C@@H](Cc1c[nH]c2ccccc12)C(=O)NCCO)C(C)C)C(C)C)[C@H](C)O [compound 8288] (For-VGA[dL]A[dT]V[dL]W[dL]W[dL]W[dV]W-NHCH2CH2OH) | 1.02 | 47.4 | -
4 | CC(C)C[C@@H](NC(=O)[C@H](C)NC(=O)CNC(=O)[C@@H](NC=O)C(C)C)C(=O)N[C@@H](C)C(=O)N[C@@H](C(=O)N[C@H](C(=O)N[C@H](CC(C)C)C(=O)N[C@@H](Cc1c[nH]c2ccccc12)C(=O)N[C@H](CC(C)C)C(=O)N[C@@H](Cc1c[nH]c2ccccc12)C(=O)N[C@H](CC(C)C)C(=O)N[C@@H](Cc1c[nH]c2ccccc12)C(=O)N[C@H](CC(C)C)C(=O)N[C@@H](Cc1c[nH]c2ccccc12)C(=O)NCCO)C(C)C)C(C)C [compound 8397] (For-VGA[dL]A[dV]V[dL]W[dL]W[dL]W[dL]W-NHCH2CH2OH) | 1.12 | 0 | +
5 | CC(C)C[C@@H](NC(=O)[C@H](C)NC(=O)[C@H](NC(=O)[C@H](C)NC(=O)CNC(=O)[C@@H](NC=O)C(C)C)C(C)C)C(=O)N[C@H](C(=O)N[C@@H](C(=O)N[C@@H](Cc1c[nH]c2ccccc12)C(=O)N[C@H](CC(C)C)C(=O)N[C@@H](Cc1c[nH]c2ccccc12)C(=O)N[C@@H](C(=O)N[C@@H](Cc1c[nH]c2ccccc12)C(=O)N[C@@H](C(=O)N[C@@H](Cc1c[nH]c2ccccc12)C(=O)NCCO)C(C)C)[C@H](C)O)C(C)C)C(C)C [compound 8473] (For-VGA[dV]A[dL]V[dV]W[dL]W[dT]W[dV]W-NHCH2CH2OH) | 1.01 | 53.6 | -
6 | CNC(=O)C[C@@H](NC(=O)[C@H](Cc1c[nH]c2ccccc12)NC(=O)[C@H](NC(=O)[C@H](Cc1c[nH]c2ccccc12)NC(=O)[C@@H](CC(C)C)NC(=O)[C@H](Cc1c[nH]c2ccccc12)NC(=O)[C@H](NC(=O)[C@@H](NC(=O)[C@@H](CC(C)C)NC(=O)[C@H](C)NC(=O)[C@@H](CC(C)C)NC(=O)[C@H](C)NC(=O)CNC(=O)[C@@H](NC=O)C(C)C)C(C)C)C(C)C)C(C)C)C(=O)N[C@@H](Cc1c[nH]c2ccccc12)C(=O)NCCO [compound 8516] (For-VGA[dL]A[dL]V[dV]W[dL]W[dV]W[dD](NHMe)W-NHCH2CH2OH) | 1.09 | 48.7 | -
7 | CC(C)C[C@@H](NC(=O)[C@H](C)NC(=O)[C@H](NC(=O)[C@H](C)NC(=O)CNC(=O)[C@@H](NC=O)C(C)C)C(C)C)C(=O)N[C@H](C(=O)N[C@H](CC(C)C)C(=O)N[C@@H](Cc1c[nH]c2ccccc12)C(=O)N[C@@H](C(=O)N[C@@H](Cc1c[nH]c2ccccc12)C(=O)N[C@@H](C(=O)N[C@@H](Cc1c[nH]c2ccccc12)C(=O)N[C@@H](C(=O)N[C@@H](Cc1c[nH]c2ccccc12)C(=O)NCCO)C(C)C)C(C)C)[C@H](C)O)C(C)C [compound 8554] (For-VGA[dV]A[dL]V[dL]W[dT]W[dV]W[dV]W-NHCH2CH2OH) | 1.03 | 61.3 | -
8 | CC(C)C[C@@H](NC(=O)[C@H](Cc1c[nH]c2ccccc12)NC(=O)[C@H](NC(=O)[C@H](Cc1c[nH]c2ccccc12)NC(=O)[C@@H](CC(C)C)NC(=O)[C@@H](NC(=O)[C@H](NC(=O)[C@H](C)NC(=O)[C@H](NC(=O)[C@H](C)NC(=O)CNC(=O)[C@@H](NC=O)C(C)C)C(C)C)C(C)C)C(C)C)C(C)C)C(=O)N[C@@H](Cc1c[nH]c2ccccc12)C(=O)N[C@@H](C(=O)N[C@@H](Cc1c[nH]c2ccccc12)C(=O)NCCO)[C@H](C)O [compound 8580] (For-VGA[dV]A[dV]V[dL]W[dV]W[dL]W[dT]W-NHCH2CH2OH) | 1.01 | 60.6 | +
9 | CNC(=O)C[C@@H](NC(=O)[C@H](C)NC(=O)[C@@H](CC(C)C)NC(=O)[C@H](C)NC(=O)CNC(=O)[C@@H](NC=O)C(C)C)C(=O)N[C@H](C(=O)N[C@@H](C(=O)N[C@@H](Cc1c[nH]c2ccccc12)C(=O)N[C@@H](C(=O)N[C@@H](Cc1c[nH]c2ccccc12)C(=O)N[C@H](CC(C)C)C(=O)N[C@@H](Cc1c[nH]c2ccccc12)C(=O)N[C@@H](C(=O)N[C@@H](Cc1c[nH]c2ccccc12)C(=O)NCCO)C(C)C)C(C)C)C(C)C)C(C)C [compound 8583] (For-VGA[dL]A[dD](NHMe)V[dV]W[dV]W[dL]W[dV]W-NHCH2CH2OH) | 1.15 | 63.4 | -
10 | CC(C)C[C@@H](NC(=O)[C@H](C)NC(=O)CNC(=O)[C@@H](NC=O)C(C)C)C(=O)N[C@@H](C)C(=O)N[C@H](CC(C)C)C(=O)N[C@H](C(=O)N[C@@H](C(=O)N[C@@H](Cc1c[nH]c2ccccc12)C(=O)N[C@H](CC(C)C)C(=O)N[C@@H](Cc1c[nH]c2ccccc12)C(=O)N[C@@H](C(=O)N[C@@H](Cc1c[nH]c2ccccc12)C(=O)N[C@H](CC(C)C)C(=O)N[C@@H](Cc1c[nH]c2ccccc12)C(=O)NCCO)C(C)C)[C@H](C)O)C(C)C [compound 8604] (For-VGA[dL]A[dL]V[dT]W[dL]W[dV]W[dL]W-NHCH2CH2OH) | 1.08 | 54.4 | -
11 | CC(C)C[C@@H](NC(=O)[C@H](C)NC(=O)CNC(=O)[C@@H](NC=O)C(C)C)C(=O)N[C@@H](C)C(=O)N[C@@H](C(=O)N[C@H](C(=O)N[C@@H](C(=O)N[C@@H](Cc1c[nH]c2ccccc12)C(=O)N[C@@H](C(=O)N[C@@H](Cc1c[nH]c2ccccc12)C(=O)N[C@H](CC(C)C)C(=O)N[C@@H](Cc1c[nH]c2ccccc12)C(=O)N[C@H](CC(C)C)C(=O)N[C@@H](Cc1c[nH]c2ccccc12)C(=O)NCCO)C(C)C)C(C)C)C(C)C)[C@H](C)O [compound 8755] (For-VGA[dL]A[dT]V[dV]W[dV]W[dL]W[dL]W-NHCH2CH2OH) | 1.10 | 67.3 | -
12 | CC(C)C[C@@H](NC(=O)[C@H](Cc1c[nH]c2ccccc12)NC(=O)[C@@H](CC(C)C)NC(=O)[C@H](Cc1c[nH]c2ccccc12)NC(=O)[C@H](NC(=O)[C@H](Cc1c[nH]c2ccccc12)NC(=O)[C@@H](CC(C)C)NC(=O)[C@@H](NC(=O)[C@H](NC(=O)[C@H](C)NC(=O)[C@H](NC(=O)[C@H](C)NC(=O)CNC(=O)[C@@H](NC=O)C(C)C)[C@H](C)O)C(C)C)C(C)C)C(C)C)C(=O)N[C@@H](Cc1c[nH]c2ccccc12)C(=O)NCCO [compound 8827] (For-VGA[dT]A[dV]V[dL]W[dV]W[dL]W[dL]W-NHCH2CH2OH) | 1.22 | 80.7 | -
13 | CC(C)C[C@@H](NC(=O)[C@H](Cc1c[nH]c2ccccc12)NC(=O)[C@H](NC(=O)[C@@H](NC(=O)[C@H](NC(=O)[C@H](C)NC(=O)[C@H](NC(=O)[C@H](C)NC(=O)CNC(=O)[C@@H](NC=O)C(C)C)C(C)C)[C@H](C)O)C(C)C)C(C)C)C(=O)N[C@@H](Cc1c[nH]c2ccccc12)C(=O)N[C@@H](C(=O)N[C@@H](Cc1c[nH]c2ccccc12)C(=O)N[C@@H](C(=O)N[C@@H](Cc1c[nH]c2ccccc12)C(=O)NCCO)C(C)C)C(C)C [compound 9055] (For-VGA[dV]A[dT]V[dV]W[dL]W[dV]W[dV]W-NHCH2CH2OH) | 1.01 | 83.5 | -
